Values of other authors, collected in PMC6008465 (British Journal of Cancer, 2018).

Tested on: BRAF-mutated human cancer xenograft models
Settings: Q4D x3 schedule; cited from earlier work

## CCNc1cc(O)c2c(c1)/C=C/C[C@H](O)[C@H](O)C(=O)/C=C\[C@@H](C)[C@H](C)OC2=O [E6201, (3S,4R,5Z,8S,9S,11E)-14-(ethylamino)-8,9,16-trihydroxy-3,4-dimethyl-3,4,9,19-tetrahydro-1H-2-benzoxacyclotetradecine-1,7 (8H)-dione]
  Duration of significant and prolonged anti-tumour activity from first dose: > 20 days
